Experimental data taken from patent EP3683219A1, “COMPOUND INHIBITING BUTYRYLCHOLINESTERASE” (Julius-Maximilians-Universität Würzburg, priority 2019, dated 2020).
Read-outs that look alike come from different tables or passages of the source.

Assays:
Format in all cases: biochemical
hBChE [1] = target: T1, hBChE (Homo sapiens, UniProt P06276); experiment: biochemical; settings: for Selectivity index (IC50 hAChE/IC50 hBChE): hAChE over hBChE; for IC50 values (hBChE), in words: linker of 4 methylene groups; for fold lower activity than heptyl carbamate 7 (IC50 hBChE): compared with compound 7
Procedure: (§1) For evaluation of enzyme inhibition, Ellman's colorimetric assay was conducted as described in Ellman, G. L., Arch. Biochem. Biophys 1958, 74, 443-450 and Ellman, G. L. et al., Biochem. Pharmacol. 1961, 7, 88-95. Therefor, 5,5'-dithiobis-(2-nitrobenzoic acid) (DTNB) solution, respective Cholinesterase (ChE) and inhibitor were incubated together and enzyme activity was measured after 20 min. The long incubation time was needed to allow the carbamate transfer between ChE and inhibitor.
(§2) The carbamate residue was altered systematically by changing residues in the terminal position of carbamate moiety and different flexible alkylene linkers were introduced. […] Nevertheless, it must be noted that IC50 values only serve as a first indicator of inhibitor affinity and selectivity. Due to the chemical reaction of carbamate transfer the enzyme inhibition is strongly time dependent. […]

hAChE = hAChE (Homo sapiens, UniProt P22303); experiment: Ellman's colorimetric assay, inhibition of hAChE; settings: for inhibition at 100 µM / inhibition at 25 µM: read-out: inhibition of hAChE; for IC50 / plC50 ± SEM (hAChE): enzyme activity measured after 20 min incubation
Procedure: as §1, §2

hBChE [2] = target: T1, hBChE; experiment: Decarbamoylation from hBChE, dilution experiments (recovery of enzyme activity, k4); settings: decarbamoylation rate, after 1 h incubation and 1:1000 dilution
Procedure: To further investigate the presence and nature of a peripheral binding site, also the hydrolysis of carbamate and the resulting release of the inhibitor from the enzyme was investigated by measuring the time dependent recovery of enzyme activity. To measure the decarbamoylation rate k4, dilution experiments were performed with hBChE following the procedure described in Sawatzky, E. et al., ChemMedChem 2016, 11, 1540-1550 and in Bartolucci, C. et al., Biochem. J. 2012, 444, 269-277. A high concentration of enzyme and inhibitor where incubated for 1 h. The concentration of inhibitor was chosen, such that > 85% of hBChE was inhibited through carbamate transfer. Then the mixture was diluted with buffer 1:1000 to a concentration at which the enzyme is not further carbamoylated. Due to the hydrolysis and release of the carbamate from the catalytic active serine enzyme activity was recovered slowly. This regeneration of the enzyme was monitored at different time points after the dilution. […] A = (1−e^(k4 ⋅t))⋅(1−A0) + A0 [formula] Table 4. Kinetic values for decarbamoylation from hBChE of selected compounds

hBChE [3] = target: T1, hBChE; experiment: Carbamoylation kinetics on hBChE (time-dependent inhibition, Kc and k3); settings: for k3 [min^-1] hBChE: carbamoylation rate constant; for Kd: carbamoylation, pre-equilibrium constant
From the text: As carbamate based inhibitors (C-X) show a pseudo irreversible manner of binding, the IC50 values must be seen critically because two chemical reactions determine them: Carbamate (C) transfer onto the enzyme (E) and carbamate hydrolysis. So, the Kc values, k3 and k4 rate constants according to below formula were investigated for some representative compounds (c.f. Fig. 3 and Fig. 4). [formula]
The mechanism of enzyme inhibition can be divided into three steps: In a pre-equilibrium, the carbamate based inhibitor C-X is bound to the enzyme E and a complex (EC-X) is formed reversible and can be characterized with Kc. Then the carbamate C is transferred onto the enzyme E and binds covalently to form E-C with the rate constant k3 while carrier scaffold X is released. Then E-C is hydrolyzed and enzyme activity is recovered and the amine C' is released with the rate constant k4, also called decarbamoylation rate.
For the determination of Kc and k3 a similar experimental setup was used compared to the evaluation of IC50 values, whereas enzyme activity was measured at various time points after addition of inhibitor.
A = A0 ⋅e^(−kobs ⋅t) + A∞ [formula]
Plotting the enzyme activity (in %) against the incubation times, lead to nonlinear time-dependent inhibition curves for the respective inhibitor concentrations whereby kobs can be determined with an exponential fit correspondent to equation (I).
Furthermore, a hyperbolic curve is obtained, plotting the rate constant kobs against the inhibitor concentration [I], which is described by equation (II), with the substrate concentration [S] and the Michaelis-Menten constant KM. kobs = (k3 ⋅[I])/(KC ⋅(1+([S])/(KM)) + [I]) [formula]
This equation (II) can be rearranged to the reciprocal of kobs, to get a linear plot: (1)/(kobs) = (KC ⋅(1+([S])/(KM)))/(k3)⋅(1)/([I]) + (1)/(k3) [formula]
Since the substrate butyrylthiocholine iodide is not added directly to the enzyme and the inhibitor, but after the incubation of enzyme with inhibitor, [S] can be set to zero, leading to Michaelis-Menten like equation IV. (1)/(kobs) = (KC)/(k3)⋅(1)/([I]) + (1)/(k3) [formula]
Relating to the linear equation (IV), KC can be established from the slope and carbamoylation rate constant k3 from the y-intercept.
As a chemical reaction is taking place, Kc must be seen as a 'real' measure for quantification of enzyme inhibitor interactions. Due to the high costs in measurements on hBChE only some representative compounds were chosen to evaluate also in kinetic studies based on the results from IC50 measurements (table 3). Table 3. Kinetic values for carbamoylation on hBChE for selected representative compounds

[4] = enzyme activity measured after 20 min incubation
[5] = enzyme activity measured after 20 min incubation, read-out: IC50 hBChE

Sequence of hAChE (P22303 32-614): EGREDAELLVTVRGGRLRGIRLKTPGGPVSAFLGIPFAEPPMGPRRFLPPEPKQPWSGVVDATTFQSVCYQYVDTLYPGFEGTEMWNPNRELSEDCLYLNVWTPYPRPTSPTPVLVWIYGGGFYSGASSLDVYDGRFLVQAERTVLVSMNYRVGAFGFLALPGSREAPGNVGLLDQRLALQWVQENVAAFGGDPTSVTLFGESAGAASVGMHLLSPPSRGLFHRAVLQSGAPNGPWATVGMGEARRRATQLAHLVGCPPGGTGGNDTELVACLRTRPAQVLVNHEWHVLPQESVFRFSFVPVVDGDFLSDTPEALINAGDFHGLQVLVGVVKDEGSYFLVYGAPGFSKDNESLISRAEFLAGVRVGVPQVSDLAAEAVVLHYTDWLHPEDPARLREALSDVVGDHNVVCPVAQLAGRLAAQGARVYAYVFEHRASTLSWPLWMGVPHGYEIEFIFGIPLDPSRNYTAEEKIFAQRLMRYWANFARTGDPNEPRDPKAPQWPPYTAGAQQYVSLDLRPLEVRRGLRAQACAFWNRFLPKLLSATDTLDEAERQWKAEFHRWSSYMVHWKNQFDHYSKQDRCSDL
T1 sequence (P06276 29-602): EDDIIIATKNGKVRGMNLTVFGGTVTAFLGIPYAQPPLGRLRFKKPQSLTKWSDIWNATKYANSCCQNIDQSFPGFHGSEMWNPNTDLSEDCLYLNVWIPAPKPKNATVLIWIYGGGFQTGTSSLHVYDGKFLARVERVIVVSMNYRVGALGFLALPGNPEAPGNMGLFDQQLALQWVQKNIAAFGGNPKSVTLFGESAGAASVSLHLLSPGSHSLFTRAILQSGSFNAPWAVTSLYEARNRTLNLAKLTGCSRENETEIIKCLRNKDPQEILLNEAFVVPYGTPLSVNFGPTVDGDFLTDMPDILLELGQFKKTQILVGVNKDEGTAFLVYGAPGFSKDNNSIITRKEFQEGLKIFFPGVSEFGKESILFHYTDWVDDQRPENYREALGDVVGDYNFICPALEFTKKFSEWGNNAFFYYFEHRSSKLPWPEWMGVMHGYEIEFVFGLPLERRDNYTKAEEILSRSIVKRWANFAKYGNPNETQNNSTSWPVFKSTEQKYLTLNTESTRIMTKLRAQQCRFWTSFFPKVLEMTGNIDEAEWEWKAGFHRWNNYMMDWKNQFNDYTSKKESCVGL

Compound | plC50 ± SEM (hBChE) (hBChE [1]; [4]) | IC50 (hBChE [1]; [5]) | Selectivity index (IC50 hAChE/IC50 hBChE) (hBChE [1]) | k4 (hBChE [2]) | k3 [min^-1] hBChE (hBChE [3]) | Kd (hBChE [3]) | inhibition at 10 µM (hAChE) | other results
CN1c2ccc(OC(=O)NCCN3CCOCC3)cc2CN2CCc3ccccc3C21 (stereo not shown) [Compound 19a] | 5.11 ± 0.04 | 7770 nM | >10 |  |  |  |  | inhibition at 100 µM (hAChE; 100 µM): 17%
CN1c2ccc(OC(=O)NCCCN3CCOCC3)cc2CN2CCc3ccccc3C21 (stereo not shown) [Compound 19b] | 6.03 ± 0.02 | 938 nM | >100 |  |  |  |  | inhibition at 100 µM (hAChE; 100 µM): 13%
CN1c2ccc(OC(=O)NCCCCN3CCOCC3)cc2CN2CCc3ccccc3C21 (stereo not shown) [Compound 19c] | 7.30 ± 0.02 | 50.6 nM | >1000 | 0.48 ± 0.06 h⁻¹ |  |  |  | IC50 values (hBChE), in words (hBChE [1]): two-digit nanomolar; inhibition at 100 µM (hAChE; 100 µM): 13%
CN1c2ccc(OC(=O)NCCCCCCCCN3CCOCC3)cc2CN2CCc3ccccc3C21 (stereo not shown) [Compound 19e] |  | 19.8 nM | >1000 | 1.58 ± 0.15 h⁻¹ |  |  |  | IC50 (hBChE [1]): 85.1 nM; inhibition at 100 µM (hAChE): 22%
CN1c2ccc(OC(=O)NCCCCCCCCCCN3CCOCC3)cc2CN2CCc3ccccc3C21 (stereo not shown) [Compound 19f] | 7.94 ± 0.07 | 11.5 nM | >1000 |  |  |  |  | inhibition at 100 µM (hAChE; 100 µM): 25%
CN1c2ccc(OC(=O)NCCN3CCc4ccccc4C3)cc2CN2CCc3ccccc3C21 (stereo not shown) [Compound 19g] | 5.76 ± 0.05 | 1720 nM | >10 |  | >20 min⁻¹ | > 200000 nM | 10% | 
CN1c2ccc(OC(=O)NCCCN3CCc4ccccc4C3)cc2CN2CCc3ccccc3C21 (stereo not shown) [Compound 19h] | 5.94 ± 0.05 | 1160 nM | >10 |  |  |  | 12% | 
CN1c2ccc(OC(=O)NCCCCN3CCc4ccccc4C3)cc2CN2CCc3ccccc3C21 (stereo not shown) [Compound 19i] | 6.72 ± 0.06 | 192 nM | >100 | 0.028 ± 0.001 h⁻¹ |  |  | 16% | IC50 values (hBChE), in words (hBChE [1]): two-digit nanomolar
CN1c2ccc(OC(=O)NCCCCCCCCN3CCc4ccccc4C3)cc2CN2CCc3ccccc3C21 (stereo not shown) [Compound 19k] | 7.49 ± 0.03 | 32.6 nM | >1000 | 0.83 ± 0.06 h⁻¹ |  |  | 11% | 
CN1c2ccc(OC(=O)NCCCCCCCCCCN3CCc4ccccc4C3)cc2CN2CCc3ccccc3C21 (stereo not shown) [Compound 19l] | 7.38 ±0.04 | 41.8 nM | >1000 |  | 0.25 ± 0.04 min⁻¹ | 5.68 ± 2.19 nM | 15% | Kc values (hBChE), in words (hBChE [3]): one-digit nanomolar range
CN1c2ccc(OC(=O)NCCCCCCn3cnc4ccccc43)cc2CN2CCc3ccccc3C21 (stereo not shown) [Compound 19m] | 8.13 ± 0.04 | 7.4 nM | >1000 | 0.45 ± 0.04 h⁻¹ | 0.26 ± 0.09 min⁻¹ | 7.7 ± 4.6 nM |  | Kc values (hBChE), in words (hBChE [3]): one-digit nanomolar range; inhibition at 25 µM (hAChE; 25 µM): 44%
CN1c2ccc(OC(=O)NCCCCCCn3ccnc3)cc2CN2CCc3ccccc3C21 (stereo not shown) [Compound 19n] | 7.88 ± 0.06 | 13.3 nM | >1000 | 0.82 ± 0.03 h⁻¹ | 0.31 ± 0.15 min⁻¹ | 13.1 ± 14.4 nM |  | Kc values (hBChE), in words (hBChE [3]): one-digit nanomolar range; inhibition at 25 µM (hAChE; 25 µM): 18%
CN1c2ccc(OC(=O)NCCCCCCN3CCCC3)cc2CN2CCc3ccccc3C21 (stereo not shown) [Compound 19o] |  | 34.3 nM | 26 | 0.98 ± 0.04 h⁻¹ |  |  |  | IC50 (hBChE [1]): 339 nM; fold lower activity than heptyl carbamate 7 (IC50 hBChE) (hBChE [1]): approximately 10 fold; IC50 (hAChE): 880 nM; plC50 ± SEM (hAChE) (hAChE): 6.06 ± 0.03
CN1c2ccc(OC(=O)NCCCCCCN3CCCCC3)cc2CN2CCc3ccccc3C21 (stereo not shown) [Compound 19p] | 7.08 ± 0.04 | 83.7 nM | 14 | 0.129 ± 0.006 h⁻¹ |  |  |  | fold lower activity than heptyl carbamate 7 (IC50 hBChE) (hBChE [1]): approximately 10 fold; IC50 (hAChE): 1200 nM; plC50 ± SEM (hAChE) (hAChE): 5.91 ± 0.03
CN1c2ccc(OC(=O)NCCCCCCN3CCN(C(=O)OC(C)(C)C)CC3)cc2CN2CCc3ccccc3C21 (stereo not shown) [Compound 19q] |  | 123 nM | >100 |  | 0.70 ± 0.31 min⁻¹ | 1550 ± 827 nM |  | IC50 (hBChE [1]): 794 nM; inhibition at 25 µM (hAChE): 15%
CN1c2ccc(OC(=O)NCCCCCCN3CCNCC3)cc2CN2CCc3ccccc3C21 (stereo not shown) [Compound 19r] | 7.09 ± 0.03 | 80.6 nM | >100 | 1.44 ± 0.07 h⁻¹ | 0.32 ± 0.13 min⁻¹ | 121 ± 116 nM |  | inhibition at 25 µM (hAChE; 25 µM): 16%
